Reference: patent US4605514A, “Des-4-leucine-calcitonin” (Armour Pharmaceutical Company, priority 1984, dated 1986)

Test system: Rats
Assay: Biological assay of calcitonin analogs in vivo: reduction of serum calcium concentration vs synthetic salmon calcitonin standard, 2×2 parallel line assay
Settings: standard used in the assay; independently determined
Experimental: Biological Assay Of Calcitonin Analogs In Vivo
The biological potency of des-4-leucine-salmon calcitonin was determined by comparing the reduction of serum calcium concentration which followed administration by graded doses of des-Leu^4 -SCT and synthetic salmon calcitonin standard. Rats were divided into four groups of seven animals, and each group was assigned at random to a dose of standard or test solution. Low and high doses were chosen from the linear portion of the dose-response curve. For the salmon calcitonin standard, the values were 0.7 and 2.1 ng. peptide/100 g. body weight (BW). This dose approximates 3 and […]/100 g. BW. Peptides were given by subcutaneous injection (0.2 ml/100 g. BW) and blood was withdrawn 1 hour later for serum calcium determination. Sera are processed and analyzed within two hours of collection. […]. Results were analyzed by a 2×2 parallel line assay [Gaddum, J. H., J. Pharm. Pharmacol., 6, 345 (1953)]. The standard salmon calcitonin used was independently determined to contain greater than 4,000 IU/mg. des-Leu^4 -SCT assayed at 5400 IU/mg.

CC(C)C[C@H](NC(=O)[C@H](CCCCN)NC(=O)CNC(=O)[C@H](CC(C)C)NC(=O)[C@@H](NC(=O)[C@@H]1CSSC[C@H](N)C(=O)N[C@@H](CO)C(=O)N[C@@H](CC(N)=O)C(=O)N[C@@H](CC(C)C)C(=O)N[C@@H](CO)C(=O)N[C@@H]([C@@H](C)O)C(=O)N1)C(C)C)C(=O)N[C@@H](CO)C(=O)N[C@@H](CCC(N)=O)C(=O)N[C@@H](CCC(=O)O)C(=O)N[C@@H](CC(C)C)C(=O)N[C@@H](Cc1c[nH]cn1)C(=O)N[C@@H](CCCCN)C(=O)N[C@@H](CC(C)C)C(=O)N[C@@H](CCC(N)=O)C(=O)N[C@H](C(=O)N[C@@H](Cc1ccc(O)cc1)C(=O)N1CCC[C@H]1C(=O)N[C@@H](CCCNC(=N)N)C(=O)N[C@H](C(=O)N[C@@H](CC(N)=O)C(=O)N[C@H](C(=O)NCC(=O)N[C@@H](CO)C(=O)NCC(=O)N[C@H](C(=O)N1CCC[C@H]1C(N)=O)[C@@H](C)O)[C@@H](C)O)[C@@H](C)O)[C@@H](C)O [standard salmon calcitonin, Salmon calcitonin]
potency content of the standard salmon calcitonin: greater than 4,000 IU/mg
